# Experiments:
# Format in all cases: functional
# Haemophilus influenzae [1] = test: Antimicrobial activity against beta-lactamase negative Haemophilus influenzae expressing […] gene by microdilution method in presence of beta-lactamase inhibitor clavulanic acid
# Haemophilus influenzae [2] = test: Antimicrobial activity against beta-lactamase negative, ampicillin-resistant Haemophilus influenzae expressing […] mutant gene by microdilution method in presence of beta-lactamase inhibitor clavulanic acid
# Haemophilus influenzae [3] = test: Antimicrobial activity against beta-lactamase positive Haemophilus influenzae expressing […] gene assessed as resistant isolates by microdilution method in presence of beta-lactamase inhibitor clavulanic acid
# Haemophilus influenzae [4] = test: Antimicrobial activity against beta-lactamase positive, ampicillin-clavulanic acid resistant Haemophilus influenzae expressing […] mutant gene by microdilution method in presence of beta-lactamase inhibitor clavulanic acid
# Haemophilus influenzae [5] = test: Antimicrobial activity against beta-lactamase positive Haemophilus influenzae expressing […] gene by microdilution method in presence of beta-lactamase inhibitor clavulanic acid
# Haemophilus influenzae [6] = test: Antimicrobial activity against beta-lactamase negative, ampicillin-resistant Haemophilus influenzae expressing […] mutant gene assessed as resistant isolates by microdilution method in presence of beta-lactamase inhibitor clavulanic acid
# Haemophilus influenzae [7] = test: Antimicrobial activity against beta-lactamase positive, ampicillin-clavulanic acid resistant Haemophilus influenzae expressing […] mutant gene assessed as resistant isolates by microdilution method in presence of beta-lactamase inhibitor clavulanic acid
# Haemophilus influenzae [8] = test: Antimicrobial activity against beta-lactamase negative Haemophilus influenzae expressing […] gene assessed as resistant isolates by microdilution method
# Haemophilus influenzae [9] = test: Antimicrobial activity against beta-lactamase positive, ampicillin-clavulanic acid resistant Haemophilus influenzae expressing […] mutant gene assessed as resistant isolates by microdilution method
# Haemophilus influenzae [10] = test: Antimicrobial activity against beta-lactamase positive Haemophilus influenzae expressing […] gene assessed as resistant isolates by microdilution method
# Haemophilus influenzae [11] = test: Antimicrobial activity against beta-lactamase negative Haemophilus influenzae expressing […] gene by microdilution method
# Haemophilus influenzae [12] = test: Antimicrobial activity against beta-lactamase negative, ampicillin-resistant Haemophilus influenzae expressing […] mutant gene by microdilution method
# Haemophilus influenzae [13] = test: Antimicrobial activity against beta-lactamase positive Haemophilus influenzae expressing […] gene by microdilution method
# Haemophilus influenzae [14] = test: Antimicrobial activity against beta-lactamase negative, ampicillin-resistant Haemophilus influenzae expressing […] mutant gene assessed as resistant isolates by microdilution method
# Haemophilus influenzae [15] = test: Antimicrobial activity against beta-lactamase positive, ampicillin-clavulanic acid resistant Haemophilus influenzae expressing […] mutant gene by microdilution method
smiles,measurement,setting,value
CC1(C)S[C@@H]2[C@H](NC(=O)[C@H](N)c3ccc(O)cc3)C(=O)N2[C@H]1C(=O)O [AMOXICILLIN],MIC50,Haemophilus influenzae [1],0.5 µg/mL
same,MIC90,Haemophilus influenzae [1],4 µg/mL
same,MIC50,Haemophilus influenzae [2],2 µg/mL
same,MIC90,Haemophilus influenzae [2],4 µg/mL
same,Activity,Haemophilus influenzae [3],4.8%
same,MIC50,Haemophilus influenzae [4],4 µg/mL
same,MIC90,Haemophilus influenzae [4],8 µg/mL
same,MIC50,Haemophilus influenzae [5],2 µg/mL
same,MIC90,Haemophilus influenzae [5],4 µg/mL
same,Activity,Haemophilus influenzae [6],9.9%
same,Activity,Haemophilus influenzae [7],25%
CC1(C)S[C@@H]2[C@H](NC(=O)[C@H](N)c3ccccc3)C(=O)N2[C@H]1C(=O)O [AMPICILLIN],Activity,Haemophilus influenzae [8],30%
same,Activity,Haemophilus influenzae [9],95.5%
same,Activity,Haemophilus influenzae [10],100%
same,MIC50,Haemophilus influenzae [11],1 µg/mL
same,MIC90,Haemophilus influenzae [11],2 µg/mL
same,MIC50,Haemophilus influenzae [12],2 µg/mL
same,MIC90,Haemophilus influenzae [12],4 µg/mL
same,MIC50,Haemophilus influenzae [13],≥ 128 µg/mL
same,MIC90,Haemophilus influenzae [13],≥ 128 µg/mL
same,Activity,Haemophilus influenzae [14],98.3%
N[C@@H](C(=O)N[C@@H]1C(=O)N2C(C(=O)O)=C(Cl)CS[C@H]12)c1ccccc1 [CEFACLOR ANHYDROUS],Activity,Haemophilus influenzae [8],40%
same,Activity,Haemophilus influenzae [9],86.4%
same,Activity,Haemophilus influenzae [10],76.2%
same,MIC50,Haemophilus influenzae [15],32 µg/mL
same,MIC90,Haemophilus influenzae [15],64 µg/mL
same,MIC50,Haemophilus influenzae [11],8 µg/mL
same,MIC90,Haemophilus influenzae [11],32 µg/mL
same,MIC50,Haemophilus influenzae [12],32 µg/mL
same,MIC50,Haemophilus influenzae [13],32 µg/mL
same,MIC90,Haemophilus influenzae [13],≥ 128 µg/mL
same,Activity,Haemophilus influenzae [14],70.2%
C=CC1=C(C(=O)O)N2C(=O)[C@@H](NC(=O)/C(=N\O)c3csc(N)n3)[C@H]2SC1 [CEFDINIR],Activity,Haemophilus influenzae [8],40%
same,Activity,Haemophilus influenzae [9],52.3%
same,Activity,Haemophilus influenzae [10],33.3%
same,MIC50,Haemophilus influenzae [15],2 µg/mL
same,MIC90,Haemophilus influenzae [15],4 µg/mL
same,MIC50,Haemophilus influenzae [11],1 µg/mL
same,MIC90,Haemophilus influenzae [11],4 µg/mL
same,MIC50,Haemophilus influenzae [12],2 µg/mL
same,MIC90,Haemophilus influenzae [12],8 µg/mL
same,MIC50,Haemophilus influenzae [13],0.5 µg/mL
same,MIC90,Haemophilus influenzae [13],4 µg/mL
same,Activity,Haemophilus influenzae [14],57%
CO/N=C(\C(=O)N[C@@H]1C(=O)N2C(C(=O)OCOC(=O)C(C)(C)C)=C(/C=C\c3scnc3C)CS[C@H]12)c1csc(N)n1 [CEFDITOREN PIVOXIL],MIC50,Haemophilus influenzae [15],0.03 µg/mL
same,MIC90,Haemophilus influenzae [15],0.06 µg/mL
same,MIC50,Haemophilus influenzae [11],0.03 µg/mL
same,MIC90,Haemophilus influenzae [11],0.06 µg/mL
same,MIC50,Haemophilus influenzae [12],0.06 µg/mL
same,MIC90,Haemophilus influenzae [12],0.06 µg/mL
same,MIC50,Haemophilus influenzae [13],0.03 µg/mL
same,MIC90,Haemophilus influenzae [13],0.06 µg/mL
CO/N=C(\C(=O)N[C@@H]1C(=O)N2C(C(=O)O)=C(COC(C)=O)CS[C@H]12)c1csc(N)n1 [CEFOTAXIME],Activity,Haemophilus influenzae [8],0%
same,Activity,Haemophilus influenzae [9],0%
same,Activity,Haemophilus influenzae [10],0%
same,MIC50,Haemophilus influenzae [15],0.03 µg/mL
same,MIC90,Haemophilus influenzae [15],0.25 µg/mL
same,MIC50,Haemophilus influenzae [11],0.03 µg/mL
same,MIC90,Haemophilus influenzae [11],0.25 µg/mL
same,MIC50,Haemophilus influenzae [12],0.06 µg/mL
same,MIC90,Haemophilus influenzae [12],0.5 µg/mL
same,MIC50,Haemophilus influenzae [13],0.03 µg/mL
same,MIC90,Haemophilus influenzae [13],0.06 µg/mL
same,Activity,Haemophilus influenzae [14],0.8%
CO/N=C(\C(=O)N[C@@H]1C(=O)N2C(C(=O)O)=C(COC(N)=O)CS[C@H]12)c1ccco1 [CEFUROXIME],Activity,Haemophilus influenzae [8],20%
same,Activity,Haemophilus influenzae [9],45.4%
same,Activity,Haemophilus influenzae [10],19%
same,MIC50,Haemophilus influenzae [15],4 µg/mL
same,MIC90,Haemophilus influenzae [15],16 µg/mL
same,MIC50,Haemophilus influenzae [11],1 µg/mL
same,MIC90,Haemophilus influenzae [11],8 µg/mL
same,MIC50,Haemophilus influenzae [12],4 µg/mL
same,MIC90,Haemophilus influenzae [12],16 µg/mL
same,MIC50,Haemophilus influenzae [13],2 µg/mL
same,MIC90,Haemophilus influenzae [13],8 µg/mL
same,Activity,Haemophilus influenzae [14],48.8%

# From ChEMBL document CHEMBL1275578, “Genotypic versus phenotypic characterization, with respect to beta-lactam susceptibility, of Haemophilus influenzae isolates exhibiting decreased susceptibility to beta-lactam resistance markers” (2009)
